Patent US10450585B2, “Delivery methods and compositions for nuclease-mediated genome engineering” (Sangamo Therapeutics, Inc., priority 2015, dated 2019)

Key:
[1] = test system: human patient-derived primary hepatocytes; assay: AAV2/6 ZFN transduction of primary hepatocytes with PDGFR inhibitor; % indels; format: cell-based; conditions: 9 μM
Procedure: For human hepatocytes, 48-well cell culture dishes were purchased pre-coated with collagen (Life Technologies). Plates were incubated for 1 hour at 37° C. Thawing/plating media was prepared by combining 18 mL InVitroGRO CP medium (BioreclamationIVT) and 400 μL Torpedo antibiotic mix (Celsis In Vitro Technologies). Once the plates were prepared, the plate-able human hepatocytes (Lot# AKB), were transferred from the liquid nitrogen vapor phase directly into the 37° C. water bath and thawed under gently stirring. The cells were transferred directly into a 50 ml conical tube containing 5 mL of pre-warmed thawing/plating medium. To retrieve all the cells, the vial was washed with 1 mL of thawing/plating medium, which was added to the cells. Following resuspension of the cells, a small aliquot (20 μL) was removed to perform a cell count and to determine cell viability using trypan blue solution (1:5; Corning, Cat#25-900-C1). The cells were then centrifuged at 75×g for 5 minutes, the supernatant was removed and the cells were resuspended at 1e6 cells/mL. Cells were seeded at 3e5 cells/well in the coated 48-well plates. Cells were then incubated in a 37° C./5% CO2 incubator.
One day after the cells were plated, cells were switched to HCM maintenance medium (Lonza, HBM and HCM SingleQuots). […] Genomic DNA was extracted and analyzed by deep sequencing (MiSeq) at the albumin locus.

[2] = test system: Hep3B (human hepatoma cell line) cells; assay: AAV2/6 delivery of albumin ZFNs to Hep3B cells after growth factor receptor inhibitor pre-incubation; % indels by deep sequencing; format: cell-based; conditions: serum-free pre-incubation, AAV2/6 albumin ZFNs MOI 3e4 vg/cell
Procedure: In order to test the relative contribution of co-receptors to AAV transduction, inhibitors against epidermal growth factor receptor (EGFR), hepatocyte growth factor receptor (HGFR), fibroblast growth factor receptor (FGFR) and platelet-derived growth factor receptor (PDGFR) were used prior to in vitro AAV2/6 transduction experiments in Hep3B (human hepatoma cell line) cells using zinc-finger nucleases (ZFNs) targeting the human albumin locus. Hep3B cells were plated at a density of 1×10^5 cells per well in a 48-well tissue culture plate in 300 μL complete growth media the day before transduction with AAV2/6. On the morning of transduction, the cells were washed three times with serum-free media and incubated in the serum-free media for three hours. Growth factor receptor inhibitors were added to the wells and incubated for one hour. AAV2/6 particles to deliver ZFNs targeted to the albumin locus were then added to the wells. After three hours, serum was added to the wells to a final concentration of 10%. The cells were harvested on day 4 post-transduction. Genomic DNA was extracted and analyzed by deep sequencing (MiSeq) at the albumin locus. The growth factor receptor inhibitors used are shown below in Table 1, and they were used in the experiment in the concentrations indicated in FIG. 3, where each inhibitor is labeled by its target.

SMILES: CC1(COc2ccc3c(c2)ncn3-c2ccc3cccc(N4CCC(N)CC4)c3n2)COC1 [Crenolanib]
- indels detected as compared to no inhibitor [1]: large increase

SMILES: COc1cc2ncnc(Nc3ccc(F)c(Cl)c3)c2cc1OCCCN1CCOCC1 [EGFRi, Gefitinib]
- AAV transduction compared to control (% indels) [2]: mild inhibition

SMILES: CCN1CCN(c2ccc(Nc3cc(N(C)C(=O)Nc4c(Cl)c(OC)cc(OC)c4Cl)ncn3)cc2)CC1 [FGFRi, BGJ398]
- AAV transduction compared to control (% indels) [2]: mild stimulation

SMILES: Cc1[nH]c(/C=C2\C(=O)Nc3ccc(S(=O)(=O)N(C)c4cccc(Cl)c4)cc32)c(C)c1C(=O)N1CCN(C)CC1 [HGFRi, SU11274]
- AAV transduction compared to control (% indels) [2]: mild stimulation
